# Reference: patent US20250302799A1, “PHARMACEUTICAL COMPOSITION CONTAINING FRAXETIN FOR PREVENTION OR TREATMENT OF ENDOMETRIOSIS” (Research & Business Foundation Sungkyunkwan University, priority 2024, published 2025)
# Columns and labels:
# endometriotic lesions = assay: Gene expression in endometriotic lesion tissue of the animal model; type: in vivo, C57/BL6 mice
# Protocol: Seven-week-old female C57/BL6 mice were purchased from DBL (Eumseong, South Korea). After a 7-day acclimation period, they were subcutaneously injected with 2 mg/50 μL of progesterone two days before surgery. After anesthetizing the mice, the […] was excised and autografted onto the peritoneum to induce endometriosis. After culturing for two weeks, the mice were randomly assigned to groups and administered either a vehicle as the control, fraxetin at 30mg/kg, or dienogest at 1 mg/kg orally for four weeks.
# VK2/E6E7 cells [1] = assay: Icam1/Vcam1 expression in endometriosis cell line; type: cell-based, human
# Protocol: (§1) The endometrial cell lines VK2/E6E7, End1/E6E7, and normal endometrial stromal cell line T-HESC were purchased from ATCC. The cells were cultured in keratinocyte serum-free medium or DMEM/F12 1:1 medium containing 10% FBS for monolayer culture. Endometrial cell lines (VK2/E6E7,End1/E6E7) and normal cells were cultured at 37° C. in a 5% CO2 incubator.
# End1/E6E7 cells [2] = assay: Icam1/Vcam1 expression in endometriosis cell line; type: cell-based, human
# Protocol: as §1
# VK2/E6E7 cells [3] = assay: Mitochondrial calcium concentration (rhod-2 staining); type: cell-based, human
# Protocol: (§2) To examine intracellular or mitochondrial calcium concentration changes in endometrial cells induced by fraxetin, the inventors conducted experiments using 3 μM fluo-4 acetoxymethyl ester (AM) (Invitrogen) and 3 μM rhod-2.
# (§3) First, cells were cultured in 6-well plates, treated with fraxetin in a dose-dependent manner (0 μM, 5 μM, 10 μM, 20 μM, 50 μM, 100 μM), and incubated at 37° C. in a 5% CO2 incubator for 48 hours. The cells were then detached using trypsin, washed with PBS, and stained with 3 μM fluo-4 or 3 μM rhod-2 for 20 minutes at 37° C. in a 5% CO2 incubator. After staining, the cells were washed with PBS, transferred to FACS tubes, and analyzed by flow cytometry to measure intracellular or mitochondrial calcium concentrations.
# End1/E6E7 cells [4] = assay: as above; type: cell-based, human
# Protocol: as §2, §3
# VK2/E6E7 cells [5] = assay: Western blot analysis of protein expression and phosphorylation; type: cell-based, human
# Protocol: (§4) To analyze protein expression related to the development of endometriosis following fraxetin treatment, the inventors conducted western blot analysis.
# (§5) Briefly, endometrial cells were treated with fraxetin in a dose-dependent manner or in combination with signaling pathway inhibitors. Total proteins were extracted from the treated cells, and protein quantification was performed using the Bradford protein assay (Bio-Rad, Hercules, CA, USA). The extracted proteins were then denatured at 95° C. for 5 minutes and subjected to electrophoresis on a 10% SDS/PAGE gel before being transferred to a nitrocellulose membrane. The membrane was subsequently incubated with primary and secondary antibodies, and target protein expression was analyzed using chemiluminescence detection reagents (Supersignal West Pico, Pierce, Rockford, IL, USA) with the ChemiDoc EQ system and Quantity One software (Bio-Rad).
# End1/E6E7 cells [6] = assay: as above; type: cell-based, human
# Protocol: as §4, §5
# VK2/E6E7 cells [7] = assay: Intracellular calcium concentration (fluo-4 staining); type: cell-based, human
# Protocol: as §2, §3
# End1/E6E7 cells [8] = assay: as above; type: cell-based, human
# Protocol: as §2, §3
# VK2/E6E7 cells [9] = assay: Wound healing / cell migration assay; type: cell-based, human; settings: vehicle 90%
# Protocol: (§6) To measure the effects of fraxetin on endometrial cell migration, the inventors used a migration culture dish insert from Ibidi to analyze cell mobility.
# (§7) In brief, endometrial cells (VK2/E6E7, End1/E6E7) were placed in compartmentalized wells within the culture dish and cultured until they filled the compartments. Afterward, the insert separating the compartments was removed, creating a 500 μm gap for cell migration. The cells were then cultured with medium containing fraxetin at 37° C. in a 5% CO2 incubator. Cell movement across the gap was observed using an optical microscope (DM3000, Leica) and photographed, and the migration distance was calculated and quantified.
# End1/E6E7 cells [10] = assay: Wound healing / cell migration assay; type: cell-based, human; settings: End1/E6E7, 50 μM fraxetin; vehicle 88%
# Protocol: as §6, §7
# VK2/E6E7 cells [11] = assay: Mitochondrial membrane potential by JC-1 staining; type: cell-based, human; settings: VK2/E6E7
# [12] = system: normal endometrial stromal cell line T-HESC; assay: BrdU cell proliferation assay, normal cells; type: cell-based, human; settings: 48 hours
# Protocol: (§8) To examine the effects of fraxetin on cell proliferation, the inventors performed a BrdU cell proliferation assay.
# (§9) First, 5×10^3 cells of VK2/E6E7, End1/E6E7, and T-HESC were each distributed in 100 μL of medium in 96-well plates.
# (§10) Fraxetin was then administered in a dose-dependent manner (0μM, 5 μM, 10 μM, 20 uM, 50 μM, 100 uM) and cultured for 48 hours, followed by the BrdU assay using a BrdU kit (Cat No: 1167229001, Roche) according to the manufacturer's instructions.
# (§11) After 48 hours of incubation, 10 μM BrdU (Bromodeoxyuridine) was added to each well and incubated at 37° C. in a 5% CO2 incubator for 2 hours. The cells were then fixed, reacted with anti-BrdU-POD solution at room temperature for 90 minutes, and washed three times. Finally, 100 μL of 3, 3′, 5, 5′-tetramethylbenzidine substrate was added, and absorbance was measured at wavelengths of 370 nm and 492 nm to analyze cell proliferation.
# VK2/E6E7 cells [13] = assay: BrdU cell proliferation assay; type: cell-based, human; settings: VK2/E6E7, 100 μM, 48 hours
# Protocol: as §8, §9, §10, §11
# End1/E6E7 cells [14] = assay: BrdU cell proliferation assay; type: cell-based, human; settings: End1/E6E7, all concentrations (5-100 μM), 48 hours
# Protocol: as §8, §9, §10, §11
smiles,measurement,setting,value
COc1cc2ccc(=O)oc2c(O)c1O [fraxetin],"expression of adhesion-related genes (Icam1, Vcam1, Itga1, Itga5)",endometriotic lesions; endometriotic lesions,inhibited
same,"expression of apoptosis-related genes (Bak1, Bax, Bad, Casp1)",endometriotic lesions; endometriotic lesions,increased
same,"expression of endoplasmic reticulum stress-related genes (Hspa5, Elf2s1, Ern1)",endometriotic lesions; endometriotic lesions,increased
same,"expression of mitochondrial function-related genes (Atp5me, Atp5pb, Atp5po)",endometriotic lesions; endometriotic lesions,decreased
same,"mRNA expression of inflammation-related genes (Il4, Cxcl15, Il8, Il21, Tnf, Il4ra, Cxcr1, Cxcr2, Il18r, Il21r, Tnfrsfa)","endometriotic lesions; endometriotic lesions, compared to control group",significantly reduced
same,expression of Icam1 and Vcam1 within the lesion tissue,endometriotic lesions; fraxetin-treated group compared to control group,reduced
same,expression levels of Icam1 and Vcam1,VK2/E6E7 cells [1],significant decrease
same,expression levels of Icam1 and Vcam1,End1/E6E7 cells [2],significant decrease
same,mitochondrial calcium ion levels,"VK2/E6E7 cells [3]; 20 μM fraxetin, second value, VK2/E6E7 assumed",2.4 fold
same,mitochondrial calcium ion levels,VK2/E6E7 cells [3]; 50 μM fraxetin,slight increase
same,mitochondrial calcium ion levels,"End1/E6E7 cells [4]; 20 μM fraxetin, first value, End1/E6E7 assumed",1.7 fold
same,mitochondrial calcium ion levels,End1/E6E7 cells [4]; 50 μM fraxetin,slight increase
same,ERK1/2 phosphorylation,"VK2/E6E7 cells [5]; 50 μM fraxetin, VK2/E6E7",0.61 fold
same,p38 phosphorylation compared to control,"VK2/E6E7 cells [5]; 50 μM fraxetin, second value, VK2/E6E7 assumed",0.47 fold
same,IRE1α expression,VK2/E6E7 cells [5]; VK2/E6E7,0.53 fold
same,expression of anti-apoptotic protein Bcl-xL,VK2/E6E7 cells [5]; VK2/E6E7,reduced
same,pro-apoptotic protein BAK,VK2/E6E7 cells [5]; VK2/E6E7,increased
same,pro-apoptotic protein BAX,VK2/E6E7 cells [5]; VK2/E6E7,increased
same,reduction of S6 phosphorylation,"End1/E6E7 cells [6]; 20 μM fraxetin, End1/E6E7",59%
same,ERK1/2 phosphorylation,"End1/E6E7 cells [6]; 50 μM fraxetin, End1/E6E7",0.51 fold
same,p38 phosphorylation compared to control,"End1/E6E7 cells [6]; 50 μM fraxetin, first value, End1/E6E7 assumed",0.61 fold
same,IRE1α expression,End1/E6E7 cells [6]; End1/E6E7,1.7 fold
same,expression of anti-apoptotic protein Bcl-xL,End1/E6E7 cells [6]; End1/E6E7,reduced
same,inhibition of AKT phosphorylation compared to control,End1/E6E7 cells [6]; End1/E6E7,57%
same,pro-apoptotic protein BAK,End1/E6E7 cells [6]; End1/E6E7,increased
same,pro-apoptotic protein BAX,End1/E6E7 cells [6]; End1/E6E7,increased
same,calcium levels (upregulated to),VK2/E6E7 cells [7],300%
same,calcium levels (upregulated to),End1/E6E7 cells [8],180%
same,wound closure,VK2/E6E7 cells [9],18%
same,wound closure,End1/E6E7 cells [10],7%
same,relative membrane potential loss rate increase,VK2/E6E7 cells [11],2.6 fold
same,cell proliferation in normal endometrial cells,[12],no changes
same,reduction of cell proliferation,VK2/E6E7 cells [13],approximately 40%
same,cell proliferation (remaining),End1/E6E7 cells [14],below 50%
